A short description of this data set: activity coefficient (dimensionless); of the first substance listed, at infinite dilution; xn = mol fraction of the nth substance listed. Particulars: Liquid, Chromatography, x1 = 0.

Numbers after ± are expanded uncertainties.

In the case of `CC1CCCCC1` [methylcyclohexane] + CCCCCCCCCCCCCC[P+](CCCCCC)(CCCCCC)CCCCCC.O=S(=O)([N-]S(=O)(=O)C(F)(F)F)C(F)(F)F, the activity coefficient was found to be 0.92 ± 0.06 (302.45 K), 0.89 ± 0.06 (322.35 K) and 0.86 ± 0.06 (342.45 K).
Take `C1COCCO1` [1,4-dioxane] + CCCCCCCCCCCCCC[P+](CCCCCC)(CCCCCC)CCCCCC.O=S(=O)([N-]S(=O)(=O)C(F)(F)F)C(F)(F)F: the activity coefficient runs as follows: (302.45 K) 0.51 ± 0.04; (322.35 K) 0.49 ± 0.04; (342.45 K) 0.48 ± 0.04.
As to `CO` [methanol] + CCCCCCCCCCCCCC[P+](CCCCCC)(CCCCCC)CCCCCC.O=S(=O)([N-]S(=O)(=O)C(F)(F)F)C(F)(F)F, the activity coefficient runs as follows: (302.45 K) 1.29 ± 0.08; (322.35 K) 0.98 ± 0.06; (342.45 K) 0.86 ± 0.06.
For `ClC(Cl)Cl` [trichloromethane] + CCCCCCCCCCCCCC[P+](CCCCCC)(CCCCCC)CCCCCC.O=S(=O)([N-]S(=O)(=O)C(F)(F)F)C(F)(F)F the same measures were 0.29 ± 0.03, 0.31 ± 0.03 and 0.32 ± 0.03.
As to `CCc1ccccc1` [ethylbenzene] + CCCCCCCCCCCCCC[P+](CCCCCC)(CCCCCC)CCCCCC.O=S(=O)([N-]S(=O)(=O)C(F)(F)F)C(F)(F)F, the activity coefficient by setting is: (302.45 K) 0.54 ± 0.04; (322.35 K) 0.57 ± 0.04; (342.45 K) 0.59 ± 0.04.
For the compound `C1CCCCCC1` [cycloheptane] + CCCCCCCCCCCCCC[P+](CCCCCC)(CCCCCC)CCCCCC.O=S(=O)([N-]S(=O)(=O)C(F)(F)F)C(F)(F)F, the activity coefficient runs as follows: (302.45 K) 0.83 ± 0.05; (322.35 K) 1.81 ± 0.12; (342.45 K) 3.59 ± 0.24.
Take `CC#N` [acetonitrile] + CCCCCCCCCCCCCC[P+](CCCCCC)(CCCCCC)CCCCCC.O=S(=O)([N-]S(=O)(=O)C(F)(F)F)C(F)(F)F: the activity coefficient reads like this: (302.45 K) 0.56 ± 0.04; (322.35 K) 0.5 ± 0.04; (342.45 K) 0.46 ± 0.04.
Turning to `c1ccsc1` [thiophene] + CCCCCCCCCCCCCC[P+](CCCCCC)(CCCCCC)CCCCCC.O=S(=O)([N-]S(=O)(=O)C(F)(F)F)C(F)(F)F, the activity coefficient (302.45 K) came to 0.42 ± 0.04, the activity coefficient (322.35 K) is 0.4 ± 0.03 and the activity coefficient (342.45 K) is 0.38 ± 0.03.
`CCCCCCC` [heptane] + CCCCCCCCCCCCCC[P+](CCCCCC)(CCCCCC)CCCCCC.O=S(=O)([N-]S(=O)(=O)C(F)(F)F)C(F)(F)F: the activity coefficient reads like this: (302.45 K) 1.27 ± 0.08; (322.35 K) 1.22 ± 0.08; (342.45 K) 1.19 ± 0.08.
For `CCCCCCCC` [octane] + CCCCCCCCCCCCCC[P+](CCCCCC)(CCCCCC)CCCCCC.O=S(=O)([N-]S(=O)(=O)C(F)(F)F)C(F)(F)F the same measures were 1.48 ± 0.1, 1.42 ± 0.09 and 1.4 ± 0.1.
Turning to `CC(C)CO` [2-methyl-1-propanol] + CCCCCCCCCCCCCC[P+](CCCCCC)(CCCCCC)CCCCCC.O=S(=O)([N-]S(=O)(=O)C(F)(F)F)C(F)(F)F, the activity coefficient runs as follows: (302.45 K) 1.49 ± 0.1; (322.35 K) 1.15 ± 0.07; (342.45 K) 0.95 ± 0.06.
For the compound `CC(C)O` [propan-2-ol] + CCCCCCCCCCCCCC[P+](CCCCCC)(CCCCCC)CCCCCC.O=S(=O)([N-]S(=O)(=O)C(F)(F)F)C(F)(F)F, the activity coefficient was 1.22 ± 0.08 (322.35 K) and 0.99 ± 0.06 (342.45 K).
For the compound `CCC=O` [propanal] + CCCCCCCCCCCCCC[P+](CCCCCC)(CCCCCC)CCCCCC.O=S(=O)([N-]S(=O)(=O)C(F)(F)F)C(F)(F)F, the activity coefficient runs as follows: (302.45 K) 0.35 ± 0.03; (322.35 K) 0.33 ± 0.03; (342.45 K) 0.31 ± 0.03.
The matching figures for `CC(C)OC(C)C` [diisopropyl ether] + CCCCCCCCCCCCCC[P+](CCCCCC)(CCCCCC)CCCCCC.O=S(=O)([N-]S(=O)(=O)C(F)(F)F)C(F)(F)F: 0.93 ± 0.06, 0.9 ± 0.06 and 0.87 ± 0.06.
Turning to `CCCCCC` [hexane] + CCCCCCCCCCCCCC[P+](CCCCCC)(CCCCCC)CCCCCC.O=S(=O)([N-]S(=O)(=O)C(F)(F)F)C(F)(F)F, the activity coefficient is, setting by setting: (302.45 K) 1.09 ± 0.07; (322.35 K) 1.04 ± 0.07; (342.45 K) 1.01 ± 0.06.
Turning to `C1CCCCC1` [cyclohexane] + CCCCCCCCCCCCCC[P+](CCCCCC)(CCCCCC)CCCCCC.O=S(=O)([N-]S(=O)(=O)C(F)(F)F)C(F)(F)F, the activity coefficient is, setting by setting: (302.45 K) 0.83 ± 0.05; (322.35 K) 0.78 ± 0.05; (342.45 K) 0.75 ± 0.05.
Take `CCCCO` [butan-1-ol] + CCCCCCCCCCCCCC[P+](CCCCCC)(CCCCCC)CCCCCC.O=S(=O)([N-]S(=O)(=O)C(F)(F)F)C(F)(F)F: the activity coefficient is 1.62 ± 0.11 (302.45 K), 1.26 ± 0.08 (322.35 K) and 1.04 ± 0.07 (342.45 K).
The matching figures for `Cc1ccccc1` [toluene] + CCCCCCCCCCCCCC[P+](CCCCCC)(CCCCCC)CCCCCC.O=S(=O)([N-]S(=O)(=O)C(F)(F)F)C(F)(F)F: 0.46 ± 0.04, 0.46 ± 0.04 and 0.47 ± 0.04.
The matching figures for `C#CCCCC` [1-hexyne] + CCCCCCCCCCCCCC[P+](CCCCCC)(CCCCCC)CCCCCC.O=S(=O)([N-]S(=O)(=O)C(F)(F)F)C(F)(F)F: 0.7 ± 0.1, 0.69 ± 0.05 and 0.67 ± 0.05.
Take `ClC(Cl)(Cl)Cl` [tetrachloromethane] + CCCCCCCCCCCCCC[P+](CCCCCC)(CCCCCC)CCCCCC.O=S(=O)([N-]S(=O)(=O)C(F)(F)F)C(F)(F)F: the activity coefficient is, setting by setting: (302.45 K) 0.55 ± 0.04; (322.35 K) 0.55 ± 0.04; (342.45 K) 0.55 ± 0.04.
Consider `CCO` [ethanol] + CCCCCCCCCCCCCC[P+](CCCCCC)(CCCCCC)CCCCCC.O=S(=O)([N-]S(=O)(=O)C(F)(F)F)C(F)(F)F, for which the activity coefficient came out at 1.56 ± 0.1 (302.45 K), 1.23 ± 0.08 (322.35 K) and 1.01 ± 0.06 (342.45 K).
For `C[N+](=O)[O-]` [nitromethane] + CCCCCCCCCCCCCC[P+](CCCCCC)(CCCCCC)CCCCCC.O=S(=O)([N-]S(=O)(=O)C(F)(F)F)C(F)(F)F the same measures were 0.77 ± 0.05, 0.64 ± 0.04 and 0.58 ± 0.04.
Take `C=CCCCC` [hex-1-ene] + CCCCCCCCCCCCCC[P+](CCCCCC)(CCCCCC)CCCCCC.O=S(=O)([N-]S(=O)(=O)C(F)(F)F)C(F)(F)F: the activity coefficient was 0.91 ± 0.06 (302.45 K), 0.87 ± 0.06 (322.35 K) and 0.85 ± 0.05 (342.45 K).
For the compound `c1ccccc1` [benzene] + CCCCCCCCCCCCCC[P+](CCCCCC)(CCCCCC)CCCCCC.O=S(=O)([N-]S(=O)(=O)C(F)(F)F)C(F)(F)F, the activity coefficient is, setting by setting: (302.45 K) 0.39 ± 0.03; (322.35 K) 0.39 ± 0.03; (342.45 K) 0.39 ± 0.03.
Regarding `CC1CCCC1` [methylcyclopentane] + CCCCCCCCCCCCCC[P+](CCCCCC)(CCCCCC)CCCCCC.O=S(=O)([N-]S(=O)(=O)C(F)(F)F)C(F)(F)F, the activity coefficient (302.45 K) was 0.85 ± 0.05, the activity coefficient (322.35 K) is 0.8 ± 0.1 and the activity coefficient (342.45 K) turned out to be 0.77 ± 0.05.
For `ClCCl` [dichloromethane] + CCCCCCCCCCCCCC[P+](CCCCCC)(CCCCCC)CCCCCC.O=S(=O)([N-]S(=O)(=O)C(F)(F)F)C(F)(F)F the same measures were 0.23 ± 0.03, 0.25 ± 0.03 and 0.27 ± 0.03.
The matching figures for `CCCC=O` [butanal] + CCCCCCCCCCCCCC[P+](CCCCCC)(CCCCCC)CCCCCC.O=S(=O)([N-]S(=O)(=O)C(F)(F)F)C(F)(F)F: 0.38 ± 0.03, 0.36 ± 0.03 and 0.35 ± 0.03.
For `CCOCC` [diethyl ether] + CCCCCCCCCCCCCC[P+](CCCCCC)(CCCCCC)CCCCCC.O=S(=O)([N-]S(=O)(=O)C(F)(F)F)C(F)(F)F the same measures were 0.62 ± 0.04, 0.59 ± 0.04 and 0.57 ± 0.04.
With `CCCC(C)=O` [pentan-2-one] + CCCCCCCCCCCCCC[P+](CCCCCC)(CCCCCC)CCCCCC.O=S(=O)([N-]S(=O)(=O)C(F)(F)F)C(F)(F)F, the activity coefficient was 0.31 ± 0.03 (302.45 K), 0.32 ± 0.03 (322.35 K) and 0.33 ± 0.03 (342.45 K).
For `CCCCCCCCCCC` [undecane] + CCCCCCCCCCCCCC[P+](CCCCCC)(CCCCCC)CCCCCC.O=S(=O)([N-]S(=O)(=O)C(F)(F)F)C(F)(F)F the same measures were 2.32 ± 0.16, 2.18 ± 0.15 and 2.1 ± 0.2.
The matching figures for `CCC(C)CC` [3-methylpentane] + CCCCCCCCCCCCCC[P+](CCCCCC)(CCCCCC)CCCCCC.O=S(=O)([N-]S(=O)(=O)C(F)(F)F)C(F)(F)F: 1.04 ± 0.07, 0.98 ± 0.06 and 0.94 ± 0.06.
For `CCC(C)=O` [butanone] + CCCCCCCCCCCCCC[P+](CCCCCC)(CCCCCC)CCCCCC.O=S(=O)([N-]S(=O)(=O)C(F)(F)F)C(F)(F)F the same measures were 0.28 ± 0.03, 0.27 ± 0.03 and 0.23 ± 0.03.
For the compound `CCCCCCCCCC` [decane] + CCCCCCCCCCCCCC[P+](CCCCCC)(CCCCCC)CCCCCC.O=S(=O)([N-]S(=O)(=O)C(F)(F)F)C(F)(F)F, the activity coefficient reads like this: (302.45 K) 1.97 ± 0.13; (322.35 K) 1.89 ± 0.13; (342.45 K) 1.84 ± 0.12.
Take `CCCCCCCCC` [nonane] + CCCCCCCCCCCCCC[P+](CCCCCC)(CCCCCC)CCCCCC.O=S(=O)([N-]S(=O)(=O)C(F)(F)F)C(F)(F)F: the activity coefficient is, setting by setting: (302.45 K) 1.87 ± 0.13; (322.35 K) 1.8 ± 0.1; (342.45 K) 1.74 ± 0.12.
The matching figures for `CCC[N+](=O)[O-]` [1-nitropropane] + CCCCCCCCCCCCCC[P+](CCCCCC)(CCCCCC)CCCCCC.O=S(=O)([N-]S(=O)(=O)C(F)(F)F)C(F)(F)F: 2.19 ± 0.15, 1.62 ± 0.11 and 1.35 ± 0.09.

Source of the values: the NIST ThermoML archive (doi:10.1021/je800754w).
